Test system: Triticum aestivum plants
Conditions: 0.1% active ingredient, microdroplets on leaf blades, stage 32, outdoor; radioactivity measurements and autoradiography at different time points
Protocol: Plant treatment: The application solution of the formulated test compound was applied in the form of microdroplets by syringe to the blades (adaxial surface) of the fuilly developed leaves. A volume of 20 μl each was applied to the 3rd or 4th leaf of the main shoot and of two tillers per plant (=a total of 60 μl application solution per plant.). Plants were kept under outdoor conditions and uptake and translocation of the test substance was analyzed at different stages.
Sampling of Leaf Tissue was Carried Out at the Following Time Points:
1) 1 week after treatment
2) 3 weeks after treatment
Processing of Collected Samples for quantitative Determinations:
For the sampling done at time points 1, 2 and 3, the treated leaf blades were cut off and the non-absorbed test compound was washed from the treated leaf blades by 2 consecutive short washes with water. Subsequently plants were dissected further, resulting in the following parts: […]
Radioactivity was quantified in the different plant parts and in the washing solutions and was calculated as equivalents of the labeled compounds. […]
For the sampling time point 4, radioactivity is determined in the grains only and is calculated as equivalents of the labeled test compound. […]
In addition to the quantitative radioactivity measurements the distribution of radioactivity is determined by autoradiography in plants of the sampling time points 1 and 2.

Compound: CC(=O)N[C@@H](CCP(C)(=O)[O-])C(=O)[O-].[Na+].[Na+] [N-acetyl PPT, dinatrium L-2-acetamido-4-methylphosphinato-butyrate-[3^14C, 4^14C]]
- foliar uptake in wheat tissue: good
- translocation of the test substance in the plant: translocation through the phloem to the ears both in the main shoot and the tillers

Reference: patent publication US6384304B1, “Conditional sterility in wheat” (Plant Genetic Systems N.V., priority 1999, dated 2002)
